Active and inactive are the calls of the source.
Tests used:
[1] = molecular target: Transcription factor p65 (Homo sapiens) (UniProt Q04206); assay: Inhibition of cisplatin-induced phosphorylation of p65 subunit at Ser536 residue in HUVEC cells at 100 uM incubated for 1 hr by Western blot analysis; type: cell-based
HUVEC [2] = assay: Improvement in cisplatin-induced endothelial monolayer integrity in HUVEC cells assessed as increase in transendothelial electric resistance at 100 uM preincubated with compound followed by cisplatin stimulation and measured after 45 mins; type: functional, cell-based; details: Homo sapiens
[3] = molecular target: Nuclear factor NF-kappa-B complex (Homo sapiens) (UniProt Q00653+P19838+Q04206); assay: Inhibition of cisplatin-induced NF-kappaB activation in HUVEC cell nuclear extract assessed as reduction in NF-kappaB-DNA binding activity at 100 uM incubated for 1 hr by electrophoretic mobility shift assay; type: subcellular; details: Nucleus
[4] = molecular target: T1, NF-kappa-B inhibitor alpha (Homo sapiens) (UniProt P25963); assay: Inhibition of cisplatin-induced phosphorylation of IkappaBalpha at Ser32/36 residue in HUVEC cells at 100 uM incubated for 1 hr by Western blot analysis; type: cell-based
T1 sequence (whole entry): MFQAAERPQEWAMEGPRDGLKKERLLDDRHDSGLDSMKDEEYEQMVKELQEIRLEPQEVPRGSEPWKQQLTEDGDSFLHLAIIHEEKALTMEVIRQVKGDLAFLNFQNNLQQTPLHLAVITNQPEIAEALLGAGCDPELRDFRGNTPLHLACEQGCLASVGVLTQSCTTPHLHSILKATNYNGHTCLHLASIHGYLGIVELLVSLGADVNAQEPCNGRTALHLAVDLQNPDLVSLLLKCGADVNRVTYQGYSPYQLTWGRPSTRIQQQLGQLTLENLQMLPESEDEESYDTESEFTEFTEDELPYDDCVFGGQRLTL

HUVEC [5] = assay: Inhibition of cisplatin-induced TRPC1 phosphorylation in [32P] orthophosphate labeled HUVEC cells at 100 uM incubated for 15 mins in presence of cisplatin by Western blot analysis; type: cell-based; details: Homo sapiens
HUVEC [6] = assay: Inhibition of cisplatin-induced PKCalpha translocation in HUVEC cells at 100 uM incubated for 15 mins in presence of cisplatin by Western blot analysis; type: functional, cell-based; details: Homo sapiens
HUVEC [7] = assay: Inhibition of cisplatin-induced store operated Ca2+ release in HUVEC cells at 100 uM preincubated with compound followed by cisplatin stimulation by Fura-2 AM staining based calcium influx assay; type: functional, cell-based; details: Homo sapiens
HUVEC [8] = assay: Inhibition of cisplatin-induced TRPC1 phosphorylation in [32P] orthophosphate labeled HUVEC cells at […] incubated for 15 mins in presence of cisplatin by Western blot analysis; type: cell-based; details: Homo sapiens

Transcription factor p65 (Homo sapiens), sequence (Q04206 whole entry): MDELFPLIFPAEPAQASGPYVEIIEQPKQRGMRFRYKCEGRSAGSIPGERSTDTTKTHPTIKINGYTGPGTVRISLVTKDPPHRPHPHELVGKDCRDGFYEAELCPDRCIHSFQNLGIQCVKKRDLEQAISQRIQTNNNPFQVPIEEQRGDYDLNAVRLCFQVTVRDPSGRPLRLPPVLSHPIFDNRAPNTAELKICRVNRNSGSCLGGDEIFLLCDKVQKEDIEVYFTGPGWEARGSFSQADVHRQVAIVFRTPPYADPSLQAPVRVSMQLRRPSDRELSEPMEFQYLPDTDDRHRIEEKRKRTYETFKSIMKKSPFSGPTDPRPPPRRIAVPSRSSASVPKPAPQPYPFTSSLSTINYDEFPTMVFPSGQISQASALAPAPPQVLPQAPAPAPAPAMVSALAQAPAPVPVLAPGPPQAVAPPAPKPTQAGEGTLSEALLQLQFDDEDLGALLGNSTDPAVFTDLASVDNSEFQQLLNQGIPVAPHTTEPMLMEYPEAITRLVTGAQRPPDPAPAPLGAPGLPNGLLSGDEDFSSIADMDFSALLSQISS
Nuclear factor NF-kappa-B complex (Homo sapiens), sequence (P19838 whole entry, looked up): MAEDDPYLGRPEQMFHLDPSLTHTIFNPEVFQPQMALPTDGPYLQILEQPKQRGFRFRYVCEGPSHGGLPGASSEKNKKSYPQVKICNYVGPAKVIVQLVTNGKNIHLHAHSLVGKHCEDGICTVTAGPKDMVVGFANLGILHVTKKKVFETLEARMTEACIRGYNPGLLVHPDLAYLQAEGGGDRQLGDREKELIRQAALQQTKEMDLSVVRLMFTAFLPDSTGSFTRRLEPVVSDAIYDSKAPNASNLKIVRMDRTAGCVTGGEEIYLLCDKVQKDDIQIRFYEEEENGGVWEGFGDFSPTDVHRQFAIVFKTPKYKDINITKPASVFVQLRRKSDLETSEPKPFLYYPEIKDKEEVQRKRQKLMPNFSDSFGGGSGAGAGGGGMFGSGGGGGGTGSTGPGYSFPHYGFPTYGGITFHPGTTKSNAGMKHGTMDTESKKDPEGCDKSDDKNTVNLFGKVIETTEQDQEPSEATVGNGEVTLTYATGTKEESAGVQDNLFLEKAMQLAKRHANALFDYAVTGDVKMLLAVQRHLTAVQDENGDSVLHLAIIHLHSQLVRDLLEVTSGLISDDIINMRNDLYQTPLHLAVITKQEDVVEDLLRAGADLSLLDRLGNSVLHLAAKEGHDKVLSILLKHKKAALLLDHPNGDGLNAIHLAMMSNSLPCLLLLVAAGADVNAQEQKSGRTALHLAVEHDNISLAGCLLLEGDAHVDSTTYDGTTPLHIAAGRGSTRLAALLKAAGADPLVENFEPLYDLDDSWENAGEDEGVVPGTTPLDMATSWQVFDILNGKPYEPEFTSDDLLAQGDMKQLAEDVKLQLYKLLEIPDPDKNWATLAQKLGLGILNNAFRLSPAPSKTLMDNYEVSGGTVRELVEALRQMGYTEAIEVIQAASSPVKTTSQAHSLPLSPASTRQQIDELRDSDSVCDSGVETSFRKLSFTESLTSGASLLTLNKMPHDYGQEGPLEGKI
Nuclear factor NF-kappa-B complex (Homo sapiens), sequence (Q00653 whole entry, looked up): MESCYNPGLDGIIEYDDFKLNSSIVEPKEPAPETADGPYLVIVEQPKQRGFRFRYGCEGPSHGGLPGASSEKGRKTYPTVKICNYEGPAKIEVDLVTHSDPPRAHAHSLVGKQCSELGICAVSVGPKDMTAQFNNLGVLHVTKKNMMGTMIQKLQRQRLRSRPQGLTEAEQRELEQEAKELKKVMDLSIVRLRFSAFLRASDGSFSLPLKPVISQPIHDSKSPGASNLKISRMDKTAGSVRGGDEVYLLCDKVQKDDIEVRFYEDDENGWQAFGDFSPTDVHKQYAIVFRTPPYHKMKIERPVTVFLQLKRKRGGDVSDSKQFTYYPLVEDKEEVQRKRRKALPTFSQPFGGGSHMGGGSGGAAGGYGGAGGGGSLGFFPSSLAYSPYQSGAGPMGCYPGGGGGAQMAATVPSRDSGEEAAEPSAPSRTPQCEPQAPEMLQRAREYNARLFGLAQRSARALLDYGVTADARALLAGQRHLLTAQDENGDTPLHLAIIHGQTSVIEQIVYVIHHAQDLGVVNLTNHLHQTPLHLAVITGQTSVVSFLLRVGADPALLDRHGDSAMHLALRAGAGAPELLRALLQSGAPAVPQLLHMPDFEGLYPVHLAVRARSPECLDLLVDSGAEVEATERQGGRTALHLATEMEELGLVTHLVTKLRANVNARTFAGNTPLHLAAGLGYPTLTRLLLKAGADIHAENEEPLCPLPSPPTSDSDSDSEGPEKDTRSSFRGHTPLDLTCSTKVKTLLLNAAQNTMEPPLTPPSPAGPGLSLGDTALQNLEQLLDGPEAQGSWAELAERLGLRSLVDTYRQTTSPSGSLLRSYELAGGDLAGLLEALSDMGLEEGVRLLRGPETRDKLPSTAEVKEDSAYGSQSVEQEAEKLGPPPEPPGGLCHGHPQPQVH
Nuclear factor NF-kappa-B complex (Homo sapiens), sequence (Q04206 whole entry, looked up): as the sequence (Q04206 whole entry) above

CC(=O)N[C@@H](C(=O)O)C(C)(C)SN=O
active: inhibition [1] | Activity (HUVEC [2]) | inhibition [3] | inhibition [4] | inhibition (HUVEC [5]) | inhibition (HUVEC [6]) | inhibition (HUVEC [7])

Cn1c2ccccc2c2c3c(c4c5ccccc5n(CCC#N)c4c21)CNC3=O
active: inhibition (HUVEC [8])

— ChEMBL document CHEMBL5223073, “Andrographolide suppresses cisplatin-induced endothelial hyperpermeability through activation of PI3K/Akt and eNOS -derived nitric oxide” (Bioorg Med Chem, 2020)
